Where no end group is shown, it is not given here.
What was measured:
[1] = tested on: Human hair follicle dermal papilla cells (HFDPC); test: Cell proliferation of HFDPC (MTT); assay type: cell-based; details: 0.5 μM, 5 μM or 50 μM, serum-free medium, 3 days, FIG. 4
Procedure: (§1) Human hair follicle dermal papilla cells (HFDPC) and HaCaT which is human keratinocyte were dispensed by 2×10^3 in each well of a 96-well plate and cultivated overnight. The medium of the cultivated cells was replaced with a serum-free medium, and treatment with Trolox-peptide conjugates of 0.5 μM, 5 μM or 50 μM were performed, and additional cultivation was performed for 3 days. Then, in order to confirm the proliferation of the cells, 4 mg/ml of 3-(4,5-dimethylthiazol-2-yl)-2,5-diphenyltetrazolium bromide (MTT) was put to the wells by 100 μl each and reacted for 4 hours. Formazan thus produced was treated with DMSO and dissolved, and light absorbance at 560 nm was measured using a microplate reader. In this case, as a positive control, 1 μM of IGF-1 or EGF, which is known as a growth factor promoting the proliferation of HFDPC and HaCaT cells was used, and as a comparison group, single compounds of Trolox and a peptide having the amino acid sequences of SEQ ID NO: 1 to SEQ ID NO: 3, having the same amounts as the Trolox-peptide conjugate of the present invention, were used.

Bax = test: Expression of Bax protein involving cell death in HFDPC (western blot); assay type: cell-based, human; details: 50 μM, 24 hours; FIG. 10
Procedure: (§2) HFDPCs were dispensed by 3×10^5 in each well of a 6-well plate and cultivated overnight. The medium of the cultivated cells was replaced with a serum-free medium, treatment with Trolox of 50 μM, a Trolox-peptide (SEQ ID NO: 2) conjugate of 50 μM, or a Trolox-peptide (SEQ ID NO: 3) conjugate of 50 μM, was performed for each, and additional cultivation was performed for 24 hours. Then, protein expression change was confirmed by performing western blot using a specific antibody to Bcl-2 and Bax proteins (Santacruz biotechnology, USA).

Bcl-2 = test: Expression of Bcl-2 protein involving cell death in HFDPC (western blot); assay type: cell-based, human; details: 50 μM, 24 hours; FIG. 10
Procedure: as §2

HaCaT human keratinocyte = test: Cell proliferation of HaCaT human keratinocyte (MTT); assay type: cell-based; details: 0.5 μM, 5 μM or 50 μM, serum-free medium, 3 days, FIG. 5
Procedure: as §1

P-smad 1/5/8 protein = test: BMP2 cell signal transduction: P-smad 1/5/8 in HFDPC (western blot); assay type: cell-based, human; details: 50 μM, 50 ng/μl BMP-2, 15 minutes; FIG. 13
Procedure: HFDPCs were dispensed by 3×10^5 in each well of a 6-well plate and cultivated overnight. The medium of the cultivated cells was replaced with a serum-free medium, and the experiments below were performed.
The HFDPC cells were treated with 50 ng/μl of BMP-2 and a Trolox-peptide (SEQ ID NO: 1) conjugate of 5 μM or 50 μM, and additionally cultivated for 15 minutes. Then, western blot was performed using a specific […] to a P-smad 1/5/8 protein which is a subprotein of which expression is controlled by BMP2 cell signal transduction (Cell signaling, USA), and the expression change of a protein was confirmed.

Cc1c(C)c2c(c(C)c1O)CCC(C)(C(=O)O)O2 (centres unmarked) [Trolox, 6-hydroxy-2,5,7,8-tetramethylchromane-2-carboxylic acid]
cell proliferation of HFDPC [1]: rarely showed cell proliferation effects
expression of Bax (Bax): increased
expression of Bcl-2 (Bcl-2): no change
cell proliferation of HaCaT (HaCaT human keratinocyte): rarely showed cell proliferation effects

Trolox-peptide (SEQ ID NO: 1) conjugate: Trolox chemically bonded to the peptide Glu-Leu-Ile-Glu-His-Gly-Gly-Gly-Arg-Pro-Ala-Asp (SEQ ID NO: 1) (ELIEHGGGRPAD; not fully specified (N-terminus); printed as Glu-Leu-Ile-Glu-His-Gly-Gly-Gly-Arg-Pro-Ala-Asp; also: Trolox chemically bonded, site not given here)
level of expression of the P-smad 1/5/8 protein increased by the treatment with BMP2 (P-smad 1/5/8 protein): reduced

From patent US12589064B2, “Trolox-peptide conjugate and use thereof” (Caregen Co., Ltd., priority 2019, dated 2026)
